Converted amounts (≈) assume the structure as drawn.
Key:
[1] = Monomer solubility in water (GC/MS of water phase); format: physicochemical; conditions: @ 25° C., monomer equilibrated with deionized water 24 hours; for solubility at 24 h: thermodynamic from solid
Method: Monomer Solubility in Water
Solubility of the monomers in water is determined by combining 5 g of monomer and 5 g of deionized water in a sealed 20 ml vial for 30 min, after which the sample is allowed to sit at room temperature for 24 hours to establish equilibrium and phase separation of monomer from water. The water phase was then removed and analyzed to determine the monomer concentration GC/MS (7890B GC with a 5977A MSD Mass Spectrophotometer), both from Agilent. Inlet temperature at 270 C. Ramp starting at 100° C. to 320° C. at 10 degrees per min. The mass spec was scanning from a molecular weight of 30-500. The GC column was a Agilent DB-SMS 30M×0.250 mm.

[2] = temperature at which initiator has 10 hour half-life; cited from earlier work

In the case of `C=C(C)C(=O)OCCOC(=O)C(=C)C` [SR206, Ethylene glycol dimethacrylate], the solubility at 24 h [1] is reported as 2400 µg/mL (≈ 12.1 mM).

In the case of `C=CC(=O)OCC(C)(C)COC(=O)C=C` [SR247, Neopentyl glycol diacrylate], the solubility at 24 h [1] is reported as 940 µg/mL (≈ 4.43 mM).

For `C=CC(=O)OCCOCCOCC` [SR256, 2-(2-ethoxyethoxy) ethyl acrylate], the Solubility in water [1] was 25330 µg/mL (≈ 135 mM).

With `C=CC(=O)OCC(COC(=O)C=C)(COC(=O)C=C)COC(=O)C=C` [SR295, PENTAERYTHRITOL TETRAACRYLATE] the solubility at 24 h [1] was 4230 µg/mL (≈ 12 mM).

In the case of `CC(C)(N=NC(C)(C)C(=N)N)C(=N)N.Cl` [Sample V-50, 2,2′-azobis(2-amidinopropane) hydrochloride], the “10 hour ½ life temperature” value [2] is given as 10 hour ½ life at 56 °C.

For `CC(C)(N=NC(C)(C)C(=O)NCCO)C(=O)NCCO` [VA-086, 2,2′-Azobis[2-methyl-N-(2-hydroxyethyl)propionamide]], the “10 hour ½ life temperature” value [2] is listed as 10 hour ½ life at 86 °C.

For `CCC(C)(C#N)N=NC(C)(C#N)CC` (centres unmarked) [Vazo-67, 2,2′-azobis(2-methylbutyronitrile)], the “10 hour ½ life temperature” value [2] is listed as 10 hour ½ life at 67 °C.

In the case of `N#CC1(N=NC2(C#N)CCCCC2)CCCCC1` [Vazo-88, 1,1′-Azobis(cyclohexanecarbonitrile)], the “10 hour ½ life temperature” value [2] is given as 10 hour ½ life at 88 °C.

Work on “Polyethylene glycol 200 diacrylate [SR259]” yielded a Solubility in water [1] of 40680 µg/mL.

With “Polyethylene glycol 400 diacrylate [SR344]” the Solubility in water [1] was “soluble”.

With “polyethylene glycol (600) diacrylate [SR610]” the Solubility in water [1] was “soluble”.
